# Assay results taken from patent US7700601B2, “Substituted indazoles of formula 1.0 that are kinase inhibitors” (Schering Corporation, priority 2006, dated 2010).
# Several values for one entry are separate records, joined by “and”; a condition that tells them apart may be missing. Identical values can stand only once.
# Target: T1, Akt1 (Homo sapiens, UniProt P31749)
# T1 construct: (His)6 (N); made in house; host or cells: Sf9 insect cells (baculovirus, pBlueBacHis2B)
# Assay: Akt1 kinase assay (33P phosphorylation of biotinylated Gsk3-derived peptide, streptavidin Flash plates)
# Assay type: biochemical
# Conditions: Table 2; active recombinant Akt1
# Source text: The assay described below measures the phosphorylation of a biotinylated peptide by active recombinant Akt1 and other kinase isoforms. The biotinylated peptide contains a consensus sequence derived from Akt substrate Gsk3 (Glycogen synthase kinase 3). The ^33P-labeled peptide substrate was captured by streptavidin-coated Flash plates.
# Active recombinant Akt1 was expressed in Sf9 insect cells and purified as described by Kumar et al., Biochim. Biophys. Acta. Jun. 15, 2001, 1526(3), 257-268. Biotinylated peptide of the sequence Bio-ahx-RPRAASF was purchased from Syn Pep (Dublin, Calif., USA).
# Human Akt1 cDNA was amplified from a marathon-ready human lung cDNA library (Clonetech) using nested oligo primers as described below. The first round of amplification was carried out using the following primers; Akt1F1 ([…]) (SEQ ID NO: 1 and Akt1R1 (TCCATC […]) (SEQ ID NO: 2) and for the second round amplification, the primers of the following sequence were used; Akt1F2 (GGATCCTCGG […]) (SEQ ID NO: 3) and AKT1R2 (GGTACCATCGTC […]) (SEQ ID NO: 4). The PCR product was subcloned into pCRScript plasmid as a BamHI/KpnI fragment and the sequence of the cDNA was confirmed by DNA sequencing. This plasmid was used as a template for reamplification of Akt1 using appropriate primers for subcloning into pBlueBaHis2B into BamH1/EcoRI sites to generate an in frame fusion to (His)6 tag and an anti-Xpress antibody epitope tag at the N-terminus. This construct was sequenced to verify the junction sequences and used for generating a recombinant baculovirus. Growth of the recombinant virus, amplification and determination of viral titer were carried out according to the instructions from the manufacturer (InVitrogen, Calif.).
# Viral stocks were used to infect large scale Sf9 cells at a multiplicity of infection (MOI) of 2.5. Cells were maintained at 27° C. for 60 h and okadaic acid was added to the cultures to a concentration of 50 nM. Cells were harvested 4 h hours later by centrifugation at 1200 rpm for 30 min followed by freezing at −80° C. until further use. All purification steps were carried out at 4° C. Whole cell pellets were suspended in buffer A (20 mM sodium phosphate buffer pH 7.8, 500 mM NaCl, 1 mM sodium vanadate, 5 mM sodium fluoride, 40 mM β-glycerophosphate, 10 mM imidazole and protease inhibitor cocktail) and lysed using a microfluidizer. The cell extract was centrifuged at 16,000×g for 10 min to remove the debris and directly loaded onto Ni-NTA Superflow resin using a FPLC pump operated at 1 ml/min. The column was washed once with buffer A, once with wash buffer B (20 mM sodium phosphate pH 6.0, 1 mM sodium vanadate, 5 mM sodium fluoride and protease cocktail) and once with wash buffer B containing 0.05% Tween-20 followed by washing with buffer A until OD260 returned to basal level. Proteins were eluted with buffer A containing 200 mM imidazole. Fractions were analyzed by electrophoresis on 10% denaturing polyacrylamide gels and fractions containing 85% pure protein band at 60 KDa were pooled and dialyzed against buffer C (20 mM Tris-HCl pH 7.5, 0.5 mM EDTA, 2 mM DTT, 145 mM NaCl, 0.1 mM sodium vanadate, 5 mM sodium fluoride, 10 mM β-glycerophosphate and 20% glycerol). Purified protein was stored as aliquots at −80° C. Protein concentrations were determined using BCA protein assay reagent A (Catalog #23228). To examine the identity of the proteins, 2 μg of purified protein was electrophoresed on SDS-polyacrylamide gels and stained with coomassie blue dye or transferred to nitrocellulose membrane and probed with anti-Akt and anti-phospho-specific Akt antibodies using enhanced chemiluminescence (ECL) reagent according to the protocol described by the manufacturer (Amersham).
# The kinase assay was performed in 96 well plates at room temperature. Assay solutions and plates were preincubated at room temperature for 5 min. […]
# T1 sequence (P31749 whole entry): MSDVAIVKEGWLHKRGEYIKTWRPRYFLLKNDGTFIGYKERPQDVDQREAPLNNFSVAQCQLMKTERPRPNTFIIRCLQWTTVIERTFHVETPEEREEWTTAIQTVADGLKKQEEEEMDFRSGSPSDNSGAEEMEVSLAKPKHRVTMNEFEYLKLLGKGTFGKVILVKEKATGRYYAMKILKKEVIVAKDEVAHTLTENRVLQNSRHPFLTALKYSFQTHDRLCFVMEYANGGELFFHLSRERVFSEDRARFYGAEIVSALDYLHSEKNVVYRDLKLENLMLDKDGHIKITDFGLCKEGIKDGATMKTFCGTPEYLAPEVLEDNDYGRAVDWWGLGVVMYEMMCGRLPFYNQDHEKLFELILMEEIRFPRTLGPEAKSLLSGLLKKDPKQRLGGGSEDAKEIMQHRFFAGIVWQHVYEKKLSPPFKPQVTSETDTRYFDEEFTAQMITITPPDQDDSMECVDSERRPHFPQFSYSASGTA
row,Compound,IC50 [µM]
1,Cc1n[nH]c2ccc(-c3cnc(N)c(NCCN)n3)cc12,0.074
2,Cc1n[nH]c2ccc(-c3cnc(NCc4ccccc4)c(N4CCN[C@@H](Cc5ccccc5)C4)n3)cc12 [drawing 104],0.076
3,Cc1n[nH]c2ccc(-c3cnc(NCc4ccccc4)c(NCCN)n3)cc12,0.079
4,Cc1n[nH]c2ccc(-c3cnc(N)c(N4CCN[C@@H](Cc5ccccc5)C4)n3)cc12 [drawing 106],0.055
5,"Cc1n[nH]c2ccc(-c3cncc(N4CCN[C@@H](Cc5ccccc5)C4)n3)cc12 [Example 2, 2-[(S)-3-benzylpiperazinyl]-6-[3-methyl-1H-indazol-5-yl]pyrazine]",0.001

# Now from value to molecule:
row,IC50 [µM],Compound
1,0.148,COc1cccc(CNc2ncc(-c3ccc4[nH]nc(C)c4c3)nc2N2CCNCC2)c1 [drawing 109]
2,0.046,Cc1n[nH]c2ccc(-c3cnc(NCc4ccccc4)c(N4CCNCC4)n3)cc12 [drawing 101]
3,0.129,Cc1n[nH]c2ccc(-c3cnc(NCc4ccccc4Cl)c(N4CCNCC4)n3)cc12 [drawing 105]
4,0.14,Cc1ccccc1CNc1ncc(-c2ccc3[nH]nc(C)c3c2)nc1N1CCNCC1 [drawing 108]
5,0.044,Cc1n[nH]c2ccc(-c3cnc(NCc4cccc(F)c4)c(N4CCNCC4)n3)cc12 [drawing 103]

# Same assay, conditions: active recombinant Akt1, 2 μM cold ATP, 2 hr, room temperature
row,Compound,IC50
1,Cc1n[nH]c2ccc(-c3cnc(N)c(N4CCNCC4)n3)cc12 [Example 12],0.00098 to 0.24 µM
2,Cc1n[nH]c2ccc(-c3cnc(NCc4ccc(Cl)cc4)c(N4CCNCC4)n3)cc12 [Example 29],0.00098 to 0.24 µM
3,Cc1n[nH]c2ccc(-c3cnc(N)c(N4CCN[C@H](c5ccccc5)C4)n3)cc12 [Example 8],0.00098 to 0.24 µM
4,"Cc1n[nH]c2ccc(-c3cnc(N)c(N4CCN[C@@H](Cc5ccccc5)C4)n3)cc12 [Example 1, 2-amino-3-[(S)-3-benzylpiperazinyl]-5-(3-methyl-1H-indazol-5-yl)pyrazine]",0.00098 to 0.24 µM
5,Cc1n[nH]c2ccc(-c3cnc(NCc4ccccc4)c(N4CCN[C@@H](Cc5ccccc5)C4)n3)cc12 [Example 5],0.00098 to 0.24 µM
6,Cc1n[nH]c2ccc(-c3cnc(NCc4ccc(F)cc4)c(N4CCNCC4)n3)cc12 [Example 43],0.00098 to 0.24 µM
7,Cc1n[nH]c2ccc(-c3cnc(NCc4c(F)cccc4Cl)c(N4CCNCC4)n3)cc12 [Example 50],0.00098 to 0.24 µM
8,"Cc1n[nH]c2ccc(-c3cncc(N4CCN[C@@H](Cc5ccccc5)C4)n3)cc12 [Example 2, 2-[(S)-3-benzylpiperazinyl]-6-[3-methyl-1H-indazol-5-yl]pyrazine]",0.00098 to 0.24 µM and 0.00098 to 0.046 µM and 0.00098 µM

# The remaining lines, values ahead:
row,IC50,Compound
1,0.00098 to 0.24 µM,COc1ccccc1CNc1ncc(-c2ccc3[nH]nc(C)c3c2)nc1N1CCNCC1 [Example 35]
2,0.00098 to 0.24 µM,Cc1n[nH]c2ccc(-c3cnc(NCc4ccccc4F)c(N4CCNCC4)n3)cc12 [Example 41]
3,0.00098 to 0.24 µM,Cc1ccccc1CNc1ncc(-c2ccc3[nH]nc(C)c3c2)nc1N1CCNCC1 [Example 38]
4,0.00098 to 0.24 µM and 0.00098 to 0.046 µM,Cc1n[nH]c2ccc(-c3cnc(NCc4ccccc4)c(N4CCNCC4)n3)cc12 [Example 18]
5,0.00098 to 0.24 µM,Cc1n[nH]c2ccc(-c3cnc(NCc4cccc(Cl)c4)c(N4CCNCC4)n3)cc12 [Example 30]
6,0.00098 to 0.24 µM,COc1cccc(CNc2ncc(-c3ccc4[nH]nc(C)c4c3)nc2N2CCNCC2)c1 [Example 34]
7,0.00098 to 0.24 µM,Cc1n[nH]c2ccc(-c3cnc(N(C)Cc4ccccc4)c(N4CCNCC4)n3)cc12 [Example 27]
8,0.00098 to 0.24 µM,Cc1n[nH]c2ccc(-c3cnc(NCc4ccccc4Cl)c(N4CCNCC4)n3)cc12 [Example 31]
9,0.00098 to 0.24 µM and 0.00098 to 0.046 µM,Cc1n[nH]c2ccc(-c3cnc(NCc4cccc(F)c4)c(N4CCNCC4)n3)cc12 [Example 42]
